{"source": "patent US11890268B2", "about": "“Dibenzothiophene derivatives and methods of treating cancer therewith” (Saint Louis University, priority 2018, dated 2024)", "key": {"[1]": {"assay": "Deoxygenation of sulfoxide to sulfide on UV-A exposure in plate well, HPLC", "assay_type": "physicochemical", "conditions": "for Sulfide Concentration 30 Minutes After UV Exposure: Table 3; for Sulfide (MA-4) Concentration: addition of drug pre-UV exposure, n = 4", "procedure": "(§1) MDA-MB-231 breast cancer cells were plated at 10,000 cells/well on three 96 well plates. After 24 hours incubation at 37° C., varying concentrations of MA-3 and MA-4 were added and incubated for 1 hour at 37° C. on only two plates (pre-UV and no UV exposure). One plate with cells were then left at room temperature covered for 30 min (no UV). The second plate (pre-UV) and the third plate (post-UV) were exposed to UV-A in a Luzchem photoreactor with 8 LZC-UVA lamps for 30 min. Varying concentrations of MA-3 and MA-4 were added to post UV exposure plate after irradiation. Plates were then incubated for 24 hours at 37° C. and then a MTS cell viability assay (Promega) was performed. Cell viability assay was run on a Flexstation3 mulitmode plate reader and percent viability was calculated. Statistical analyses were performed using GraphPad Prism program.\nThe concentrations were determined using HPLC injections on Agilent Technologies 1200 series HPLC—quaternary pump. The experiment was carried out in two trials consisting of duplicate studies."}, "[2]": {"system": "MDA-MB-231 breast cancer cells", "assay": "MTS cell viability assay with UV-A irradiation", "assay_type": "cell-based", "procedure": "as §1"}}, "data": [{"smiles": "O=S(=O)(Oc1ccccc1)c1ccc2c(c1)c1cc(-c3ccc(-c4ccccc4)cc3)ccc1[s+]2[O-]", "note": "(stereo not shown) [Compound 5a]", "values": [{"measurement": "Sulfide Concentration 30 Minutes After UV Exposure", "setting": "[1]; starting concentration 10 μM", "value": "3.3 ± 1.4", "unit": "µM"}]}, {"smiles": "CC(=O)OCc1ccc2c(c1)c1cc(COC(C)=O)ccc1[s+]2[O-]", "note": "[MA-3, 5-oxo-2,8-diacetoxymethyldibenzothiophene]", "values": [{"measurement": "% cell viability", "setting": "[2]; compound added pre-UV exposure, cells irradiated with UV-A", "value": "decreases % cell viability"}, {"measurement": "% cell viability", "setting": "[2]; compound added pre-UV exposure, cells irradiated with UV-A, listed as 5-oxo-2,8-diacetoxymethyldibenzothiophene", "value": "a decrease in % cell viability"}, {"measurement": "Sulfide (MA-4) Concentration", "setting": "[1]; Concentration of MA-3 10 μM", "value": "9.653 ± 0.170", "unit": "µM"}, {"measurement": "Sulfide (MA-4) Concentration", "setting": "[1]; Concentration of MA-3 100 μM", "value": "90.02 ± 4.87", "unit": "µM"}, {"measurement": "Sulfide Concentration 30 Minutes After UV Exposure", "setting": "[1]; starting concentration 100 μM", "value": "90 ± 3", "unit": "µM"}]}, {"smiles": "CC(=O)OCc1ccc2sc3ccc(COC(C)=O)cc3c2c1", "note": "[MA-4]", "values": [{"measurement": "% cell viability", "setting": "[2]; any of the UV-exposure conditions (no UV, pre-UV, post-UV)", "value": "did not decrease % cell viability"}]}]}
